Assay results as given in publication PMC9736281, “Flavonoid Constituents and Alpha-Glucosidase Inhibition of Solanum stramonifolium Jacq. Inflorescence with In Vitro and In Silico Studies” (Molecules, 2022).
≈ marks a conversion by molar mass, not a printed value. Read-outs that look alike come from different tables or passages of the source. Values belong to the molecule of their own block, whether it stands above or below them.

What was measured:
alpha-glucosidase enzyme [1] = experiment: Enzyme kinetic study (Lineweaver-Burk plot, secondary plot); assay type: biochemical, Saccharomyces cerevisieae
Experimental: To determine the mode of inhibition, the enzyme kinetic procedure was performed as described by Sakulkeo et al.. The double reciprocal Lineweaver–Burk plot was constructed and used for the mode of action determination. The inhibition constant (Ki) was conducted from the secondary plot. Briefly, the 5 concentrations of substrate pNPG (2.5–0.125 mM), the enzyme from Saccharomyces cerevisieae (EC 3.2.1.20) at 1 unit/mL, and 3 concentrations of sample were tested in triplicate.

alpha-glucosidase enzyme [2] = experiment: Alpha-glucosidase inhibitory activity, enzymatic assay with pNPG; assay type: biochemical, Saccharomyces cerevisiae; conditions: for IC50: purchased standards, DMSO co-solvent not more than 5%
Experimental: All extracts and isolated compounds were examined for their alpha-glucosidase inhibitory activity according to Dej-adisai and Pitakput, 2015 [23]. Briefly, 0.01 M phosphate buffer (50 μL), samples or standard solution (50 μL), and alpha-glucosidase enzyme solution (50 μL) were added to the well plate. The mixture solution was incubated at 37 °C for 2 min. Next, para-nitrophenyl-α-D-glucopyranoside solution (50 μL) was added. The enzymatic inhibition was evaluated from the yellow final product, p-nitrophenol (pNP). The color of the reaction was detected by visible light at 405 nm of SPECTROstar Nano spectrophotometer (BMG Labtech, Ortenberg, Germany). The product absorption was converted to velocity (V) by using Equation (1). Then, the velocity was used to calculated the percentage of inhibition by Equation (2). Furthermore, the ability of sample was performed by IC50 value, which was generated from the calibration curve of percentages of inhibition at five different sample concentrations. Velocity = ∆ Absorbance at 405 nm/∆ Time(1) % Inhibition = [(Vcontrol − Vsample)/Vcontrol] × 100(2)

alpha-glucosidase enzyme [3] = conditions: cited from earlier work

Structure (SMILES): C[C@H]1O[C@H](O[C@H]2[C@H](O)[C@@H](O)[C@@H](O[C@H]3[C@H](O)[C@@H](O)C(O)O[C@@H]3CO)O[C@@H]2CO)[C@H](O)[C@@H](O)[C@@H]1N[C@H]1C=C(CO)[C@@H](O)[C@H](O)[C@H]1O (stereo partly drawn) [Acarbose, acarbose, reference compound]
Inhibition Type (alpha-glucosidase enzyme [1]): Competitive
% Inhibition at 200 μg/mL (alpha-glucosidase enzyme [2]; alpha-glucosidase): 45.27 ± 4.5%
% Inhibition at 400 μg/mL (alpha-glucosidase enzyme [2]; alpha-glucosidase): 60.78 ± 3.61%
% Inhibition at 2 mg/mL (alpha-glucosidase enzyme [2]; alpha-glucosidase, sample at 2 mg/mL): 76.44 ± 3.06%

% Inhibition at 400 μg/mL (alpha-glucosidase enzyme [2]; alpha-glucosidase): 12.78 ± 4.89%
Structure (SMILES): COc1cc(O)c2c(=O)c(OC)c(-c3cc(O)c(OC)c(OC)c3)oc2c1 [Compound 1, myricetin 3, 4′, 5′, 7-tetramethyl ether]

% Inhibition at 400 μg/mL (alpha-glucosidase enzyme [2]; alpha-glucosidase): 8.51 ± 3.79%
Structure (SMILES): COc1cc(O)c2c(=O)c(OC)c(-c3cc(OC)c(OC)c(OC)c3)oc2c1 [Compound 2, 5-hydroxy-3,7,3′,4′,5′-pentamethoxyflavone]

Structure (SMILES): O=c1c(O)c(-c2ccc(O)cc2)oc2cc(O[C@@H]3O[C@H](CO)[C@@H](O)[C@H](O)[C@H]3O)cc(O)c12 [Compound 4, kaempferol 7-O-β-glucopyranoside]
% Inhibition at 400 μg/mL (alpha-glucosidase enzyme [2]; alpha-glucosidase): 7.68 ± 0.33%

Structure (SMILES): O=c1c(OC2O[C@H](CO)[C@@H](O)[C@H](O)[C@H]2O)c(-c2ccc(O)cc2)oc2cc(O)cc(O)c12 (stereo partly drawn) [Compound 6b, kaempferol 3-O-glucopyranoside]
Inhibition Type (alpha-glucosidase enzyme [1]; listed as Astragalin): Mixed
Inhibition Type (alpha-glucosidase enzyme [1]; listed as astragalin): mixed-type
IC50 (alpha-glucosidase enzyme [2]): >600 µg/mL
Inhibition Type (alpha-glucosidase enzyme [3]; ref [16]): non-competitive

% Inhibition at 200 μg/mL (alpha-glucosidase enzyme [2]; alpha-glucosidase): 0.84 ± 0.21%
Structure (SMILES): COc1cc(O)c2c(=O)c(OC)c(-c3cc(OC)c(OC)c(OC4OC(CO)C(O)C(O)C4O)c3)oc2c1 (stereo not drawn) [Compound 5, 5-hydroxy 3-7-4′-5′-tetramethoxyflavone-3′-O-glucopyranoside]

Structure (SMILES): O=c1c(O)c(-c2ccc(O)cc2)oc2cc(O)cc(O)c12 [Compound 3, kaempferol]
Inhibition Type (alpha-glucosidase enzyme [1]; listed as Kaempferol): Mixed
Inhibition Type (alpha-glucosidase enzyme [1]; listed as kaempferol): mixed-type
% Inhibition at 400 μg/mL (alpha-glucosidase enzyme [2]; alpha-glucosidase): 13.01 ± 2.69%
IC50 (alpha-glucosidase enzyme [2]): 585.63 µg/mL (≈ 2050 µM)
Inhibition Type (alpha-glucosidase enzyme [3]; ref [13],[14]): mixed-type
Inhibition Type (alpha-glucosidase enzyme [3]; ref [15]): non-competitive
